Data from patent US9611262B2, “Substituted 2-azabicycles and their use as orexin receptor modulators” (JANSSEN PHARMACEUTICA NV, priority 2014, dated 2017).

What was measured:
rat orexin 1 receptor = rat orexin 1 receptor (Rattus norvegicus, UniProt P56718); test: Rat orexin 1 receptor radioligand binding (competitive); details: HEK293 cells stably expressing rat orexin 1 receptor; 4 nM radioligand; averages of 2-20 runs; read-out: rOX1 Ki
Experimental: (§1) The in vitro affinity of the compounds of the invention for the rat/human orexin 1 and human orexin 2 receptors was determined by competitive radioligand binding using [^3H](1-(5-(2-fluoro-phenyl)-2-methyl-thiazol-4-yl)-1-((S)-2-(5-phenyl-(1,3,4)oxadiazol-2-ylmethyl)-pyrrolidin-1-yl)-methanone) (Langmead et al., 2004) and [^3H]EMPA (n-ethyl-2[96-methoxy-pyridin-3-yl)-(toluene-2-sulfonyl)-amino]-N-pyridin-3-ylmethyl acetamide), respectively (Langmead et al., 2004, British Journal of Pharmacology 141:340-346; Malherbe et al., 2004, British Journal of Pharmacology 156:1326-41).
(§2) Data are analyzed using pc-Sandy macro and graphed on Graphpad Prism 5. For analysis, each concentration point is averaged from triplicate values and the averaged values are plotted on Graphpad Prism. The IC50 was determined by applying the following equation (GraphPad Prism 5.0, San Diego) for one site competition where X=log (concentration) and Y=specific binding. Top denotes the total [^3H]— (1-(5-(2-fluoro-phenyl)-2-methyl-thiazol-4-yl)-1-((S)-2-(5-phenyl-(1,3,4)oxadiazol-2-ylmethyl)-pyrrolidin-1-yl)-methanone) binding, bottom denotes the nonspecific [^3H]— (1-(5-(2-fluoro-phenyl)-2-methyl-thiazol-4-yl)-1-((S)-2-(5-phenyl-(1,3,4)oxadiazol-2-ylmethyl)-pyrrolidin-1-yl)-methanone) binding. Graphpad Prism calculates Ki value from IC50 and the pre-determined Kd values for [^3H]— (1-(5-(2-fluoro-phenyl)-2-methyl-thiazol-4-yl)-1-((S)-2-(5-phenyl-(1,3,4)oxadiazol-2-ylmethyl)-pyrrolidin-1-yl)-methanone) and [^3H]-EMPA. The Ki for each compound is then uploaded into 3DX. Each run comprises individual compounds in triplicate. The data in Table 1 and Table 2 represent averages from between 2-20 runs
Rat and Human Orexin 1 Receptor Radioligand Binding Studies
Human Embryonic Kidney 293 cells (HEK293) stably expressing rat orexin 1 receptor (Genebank accession number NM_001525) or Chinese ovary cells (CHO) stably expressing human orexin 1 receptor (Genebank accession number […]) were grown to confluency in DMEM (Hyclone, cat # SH30022), 10% FBS, 1× Pen/Strep, 1× sodium pyruvate, 10 mM HEPES, 600 μg/mL G418 and DMEM/F12 (Gibco, Cat #11039), 10% FBS, 1× Pen/Strep, 600 μg/mL G418 media, respectively on 150 cm^2 tissue culture plates, washed with 5 mM EDTA in PBS (HyClone Dulbecco's Phosphate Buffered Saline 1× with Calcium and Magnesium, Cat # SH30264.01, hereafter referred to simply as PBS) and scraped into 50 ml tubes. After centrifugation (2K×G, 5 min at 4° C.), the supernatant was aspirated and the pellets frozen and stored at −80° C. Cells were resuspended in PBS in the presence of 1 tablet of protease inhibitor cocktail (Roche, Cat. #11836145001) per 50 mL. […] Competition binding experiments in 96 well polypropylene plates were performed using [^3H]— (1-(5-(2-fluoro-phenyl)-2-methyl-thiazol-4-yl)-1-((S)-2-(5-phenyl-(1,3,4)oxadiazol-2-ylmethyl)-pyrrolidin-1-yl)-methanone) (Moraveck Corporation, specific activity=35.3 Ci/mmol), diluted to a 10 nM concentration in PBS (4 nM final). Compounds were solubilized in 100% DMSO (Acros Organics, Cat. #61042-1000) and tested over a range of 7 concentrations (from 0.1 nM to 10 μM). The final concentration of DMSO in the reactions is equal to or less than 0.1%. Total and nonspecific binding was determined in the absence and presence of 10 μM almorexant. The total volume of each reaction is 200 μL (20 μL of diluted compounds, 80 μL of [^3H]— (1-(5-(2-fluoro-phenyl)-2-methyl-thiazol-4-yl)-1-((S)-2-(5-phenyl-(1,3,4)oxadiazol-2-ylmethyl)-pyrrolidin-1-yl)-methanone) diluted in PBS and 100 μL of the cell suspension). Reactions were run for 60 min at room temperature and terminated by filtration through GF/C filter plates (PerkinElmer, Cat. #6005174) presoaked in 0.3% polyethylenimine using the cell harvester (PerkinElmer Filtermate). The plates were washed 3 times by aspirating 30 ml PBS through the plates. Plates were dried in 55° C. oven for 60 min, scintillation fluid was added, and the radioactivity was counted on a Topcount (Packard). […]

human orexin 2 receptor = human orexin 2 receptor (Homo sapiens (Human), UniProt O43614); test: Human orexin 2 receptor radioligand binding ([3H]-EMPA competition); details: HEK293 stably expressing human orexin 2 receptor; 2 nM [3H]-EMPA; averages of 2-20 runs; read-out: hOX2 Ki
Experimental: as §1, §2
Human Orexin 2 Receptor Radioligand Binding Studies
HEK293 stably expressing human orexin 2 receptor (Genebank accession number NM_001526) were grown to confluency in DMEM (Hyclone, cat # SH30022), 10% FBS, 1× Pen/Strep, 1× NaPyruvate, 10 mM HEPES, 600 μg/ml G418 media on 150 cm^2 tissue culture plates, washed with 5 mM EDTA in PBS (HyClone Dulbecco's Phosphate Buffered Saline 1× with Calcium and Magnesium, Cat # SH30264.01, hereafter referred to simply as PBS) and scraped into 50 ml tubes. After centrifugation (2K×G, 5 min at 4° C.), the supernatant was aspirated and the pellets frozen and stored at −80° C. Cells were resuspended in PBS in the presence of 1 tablet of protease inhibitor cocktail (Roche, Cat. #11836145001) per 50 mL. […] Compounds were solubilized in 100% DMSO (Acros Organics, Cat. #61042-1000) and tested over a range of 7 concentration (from 0.1 nM to 10 μM). The final concentration of DMSO in the reactions is equal to or less than 0.1%. Total and nonspecific binding was determined in the absence and presence of 10 μM almorexant. The total volume of each reaction is 200 μL (20 μL of diluted compounds, 80 μL of [^3H]-EMPA diluted in PBS and 100 μL of the cell suspension). Reactions were run for 60 min at room temperature and terminated by filtration through GF/C filter plates (PerkinElmer, Cat. #6005174) presoaked in 0.3% polyethylenimine using the cell harvester (PerkinElmer Filtermate). The plates were washed 3 times by aspirating 30 ml PBS through the plates. Plates were dried in 55° C. oven for 60 min, scintillation fluid was added, and the radioactivity was counted on a Topcount (Packard).

Chain of human orexin 2 receptor (O43614 whole entry): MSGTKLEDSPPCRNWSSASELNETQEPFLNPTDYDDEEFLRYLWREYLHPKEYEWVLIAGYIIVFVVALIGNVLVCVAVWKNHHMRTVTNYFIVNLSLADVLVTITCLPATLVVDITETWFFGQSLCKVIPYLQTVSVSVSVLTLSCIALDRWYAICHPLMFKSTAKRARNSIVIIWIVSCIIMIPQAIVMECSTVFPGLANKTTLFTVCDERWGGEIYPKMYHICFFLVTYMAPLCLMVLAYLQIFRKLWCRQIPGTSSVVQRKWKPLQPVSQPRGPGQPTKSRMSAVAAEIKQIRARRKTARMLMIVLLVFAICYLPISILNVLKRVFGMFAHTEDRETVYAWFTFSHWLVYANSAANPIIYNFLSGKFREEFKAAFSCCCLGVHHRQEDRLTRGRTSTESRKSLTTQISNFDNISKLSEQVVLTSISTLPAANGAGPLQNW

Row | SMILES | Ki (rat orexin 1 receptor) [nM] | Ki (human orexin 2 receptor) [nM]
1 | C[C@@H]1[C@H]2C[C@@H](Oc3ccc(C(F)(F)F)nc3)[C@H](C2)N1C(=O)c1ncccc1-n1nccn1 (relative stereo) [Example 37, (3-(2H-1,2,3-triazol-2-yl)pyridin-2-yl)((1S*,3R*,4R*,6R*)-3-methyl-6-((6-(trifluoromethyl)pyridin-3-yl)oxy)-2-azabicyclo[2.2.1]heptan-2-yl)methanone] | 3720 | > 10000
2 | Cc1ccc(-n2nccn2)c(C(=O)N2[C@H](C)[C@H]3C[C@@H](Oc4ccc(C(F)(F)F)nc4)[C@@H]2C3)n1 (relative stereo) [Example 40, (6-methyl-3-(2H-1,2,3-triazol-2-yl)pyridin-2-yl)((1S*,3R*,4R*,6R*)-3-methyl-6-((6-(trifluoromethyl)pyridin-3-yl)oxy)-2-azabicyclo[2.2.1]heptan-2-yl)methanone] | 544 | > 10000
3 | C[C@@H]1[C@H]2C[C@@H](Oc3ccc(C(F)(F)F)nc3)[C@H](C2)N1C(=O)c1ccccc1-n1nccn1 (relative stereo) [Example 41, (2-(2H-1,2,3-triazol-2-yl)phenyl)((1S*,3R*,4R*,6R*)-3-methyl-6-((6-(trifluoromethyl)pyridin-3-yl)oxy)-2-azabicyclo[2.2.1]heptan-2-yl)methanone] | 300 | > 10000
4 | Cc1ccc(-n2nccn2)c(C(=O)N2C(C)C3CC(Nc4cnc(C(F)(F)F)cn4)C2C3)n1 (single isomer, unassigned) [Example 69, (R/S)-(6-methyl-3-(2H-1,2,3-triazol-2-yl)pyridin-2-yl)(3-methyl-6-((5-(trifluoromethyl)pyrazin-2-yl)amino)-2-azabicyclo[2.2.1]heptan-2-yl)methanone] |  | 345
5 | C[C@@H]1[C@H]2C[C@@H](Oc3ccc(C(F)(F)F)cn3)[C@H](C2)N1C(=O)c1cccc(-c2ccc(F)cc2)c1 [Example 36, (4′-fluoro-[1,1′-biphenyl]-3-yl)((1S,3R,4R,6R)-3-methyl-6-((5-(trifluoromethyl)pyridin-2-yl)oxy)-2-azabicyclo[2.2.1]heptan-2-yl)methanone] | 845 | > 10000
6 | [2H]C([2H])([2H])[C@]1([2H])[C@H]2C[C@@H](Oc3ccc(C(F)(F)F)cn3)[C@H](C2)N1C(=O)c1cccc(F)c1-n1nccn1 [Example 164, [(1R,2R,4S,5R)-2-deuterio-2-(trideuteriomethyl)-5-[[5-(trifluoromethyl)-2-pyridyl]oxy]-3-azabicyclo[2.2.1]heptan-3-yl]-[3-fluoro-2-(triazol-2-yl)phenyl]methanone] | 5 | 565
7 | [2H]C([2H])([2H])[C@]1([2H])[C@H]2C[C@@H](Oc3ccc(C(F)(F)F)cn3)[C@H](C2)N1C(=O)c1ncc(C)cc1-n1nccn1 [Example 166, [(1R,2R,4S,5R)-2-deuterio-2-(trideuteriomethyl)-5-[[5-(trifluoromethyl)-2-pyridyl]oxy]-3-azabicyclo[2.2.1]heptan-3-yl]-[5-methyl-3-(triazol-2-yl)-2-pyridyl]methanone] |  | 1100
8 | [2H]C([2H])([2H])[C@]1([2H])[C@H]2C[C@@H](Oc3ccc(C(F)(F)F)cn3)[C@H](C2)N1C(=O)c1cc(F)ccc1-c1ncccn1 [Example 167, [(1R,2R,4S,5R)-2-deuterio-2-(trideuteriomethyl)-5-[[5-(trifluoromethyl)-2-pyridyl]oxy]-3-azabicyclo[2.2.1]heptan-3-yl]-(5-fluoro-2-pyrimidin-2-yl-phenyl)methanone] |  | 767
9 | [2H]C1([2H])[C@H]2C[C@@H]([C@@H]1Oc1ccc(C(F)(F)F)cn1)N(C(=O)c1ncc(C)cc1-n1nccn1)[C@@H]2C [Example 200, [(1R,3R,4S,6R)-2,2-dideuterio-6-methyl-3-[[5-(trifluoromethyl)-2-pyridyl]oxy]-5-azabicyclo[2.2.1]heptan-5-yl]-[5-methyl-3-(triazol-2-yl)-2-pyridyl]methanone] |  | 1200

Results, then the molecule that gave them:

Row | Ki (rat orexin 1 receptor) [nM] | Ki (human orexin 2 receptor) [nM] | SMILES
10 | 746 |  | CC1C2CC(Oc3ccc(C(F)(F)F)cn3)C(C2)N1C(=O)c1ccccc1-c1ncc(F)cn1 (single isomer, unassigned) [Example 19A, (2-(5-fluoropyrimidin-2-yl)phenyl)((1R*,3S*,4S*,6S*)-3-methyl-6-((5-(trifluoromethyl)pyridin-2-yl)oxy)-2-azabicyclo[2.2.1]heptan-2-yl)methanone]
11 |  | 259 | CC1C2CC(Nc3cnc(C(F)(F)F)cn3)C(C2)N1C(=O)c1ccccc1-n1nccn1 (single isomer, unassigned) [Example 68B, (2-(2H-1,2,3-triazol-2-yl)phenyl)((1S*,3R*,4S*,6R*)-3-methyl-6-((5-(trifluoromethyl)pyrazin-2-yl)amino)-2-azabicyclo[2.2.1]heptan-2-yl)methanone]
12 |  | > 10000 | Cc1ccc(-n2nccn2)c(C(=O)N2C(C)C3CC(Nc4cnc(C(F)(F)F)cn4)C2C3)n1 (single isomer, unassigned) [Example 69A, (6-methyl-3-(2H-1,2,3-triazol-2-yl)pyridin-2-yl)((1R*,3S*,4R*,6S*)-3-methyl-6-((5-(trifluoromethyl)pyrazin-2-yl)amino)-2-azabicyclo[2.2.1]heptan-2-yl)methanone]
13 |  | 236 | Cc1ccc(-n2nccn2)c(C(=O)N2C(C)C3CC(Nc4cnc(C(F)(F)F)cn4)C2C3)n1 (single isomer, unassigned) [Example 69B, (6-methyl-3-(2H-1,2,3-triazol-2-yl)pyridin-2-yl)((1S*,3R*,4S*,6R*)-3-methyl-6-((5-(trifluoromethyl)pyrazin-2-yl)amino)-2-azabicyclo[2.2.1]heptan-2-yl)methanone]
